Laboratory results as given in PubChem BioAssay (NCI).
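Protocol summary: plate cells (96-well), add compound at 5 concentrations, incubate 48 h, interpolate endpoints linearly. TGI denotes the concentration required for complete inhibition of growth.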

What was measured:
Experiment in all cases: growth of human tumour cells (NCI), 48 h
[1] = test system: U251 CNS
[2] = test system: HOP-92 NSCLC
[3] = test system: 786-0 renal
[4] = test system: HCC-2998 colon
[5] = test system: SK-MEL-28 melanoma
[6] = test system: OVCAR-5 ovarian
[7] = test system: DU-145 prostate
[8] = test system: COLO 205 colon
[9] = test system: CAKI-1 renal
[10] = test system: T-47D breast
[11] = test system: SK-MEL-5 melanoma
[12] = test system: MALME-3M melanoma
[13] = test system: RXF 393 renal
[14] = test system: OVCAR-4 ovarian
[15] = test system: NCI-H522 lung
[16] = test system: M14 melanoma
[17] = test system: RPMI-8226 leukemia
[18] = test system: OVCAR-3 ovarian
[19] = test system: MDA-MB-231 breast
[20] = test system: MDA-MB-435
[21] = test system: UACC-62 melanoma
[22] = test system: SK-MEL-2 melanoma
[23] = test system: SR leukemia
[24] = test system: SF-539 CNS
[25] = test system: UO-31 renal
[26] = test system: SW-620 colon
[27] = test system: HT29 colon
[28] = test system: OVCAR-8 ovarian
[29] = test system: SF-295 CNS
[30] = test system: SF-268 CNS
[31] = test system: A498 renal
[32] = test system: NCI-H460 lung
[33] = test system: MOLT-4 leukemia
[34] = test system: SNB-19 CNS
[35] = test system: ACHN renal
[36] = test system: HOP-62 NSCLC
[37] = test system: NCI-H23 lung
[38] = test system: SN12C renal
[39] = test system: A549 NSCLC
[40] = test system: MCF7 breast
[41] = test system: HCT-15 colon
[42] = test system: HCT-116 colon
[43] = test system: PC-3 prostate
[44] = test system: NCI/ADR-RES ovarian
[45] = test system: TK-10 renal
[46] = test system: SK-OV-3 ovarian
[47] = test system: K-562 leukemia
[48] = test system: KM12 colon
[49] = test system: HL-60(TB) leukemia
[50] = test system: CCRF-CEM leukemia
[51] = test system: HS 578T breast
[52] = test system: EKVX NSCLC
[53] = test system: NCI-H226 lung
[54] = test system: SNB-75 CNS
[55] = test system: UACC-257 melanoma

Measured: TGI

CN=C1Nc2ccccc2C(=S)N2CSC[C@@H]12
not listed: [49] | [50] | [51] | [52] | [53] | [54] | [55]
> 100 µM: all other assays above

Cc1ncc([N+](=O)[O-])n1CC(O)Cn1cnc([N+](=O)[O-])n1 (configuration not stated)
not listed: [2] | [7] | [8] | [9] | [10] | [13] | [14] | [16] | [19] | [20] | [21] | [25] | [34] | [44] | [45] | [46]
> 100 µM: all other assays above
